# Source: US5696276A, “Process for preparing 5,8-dihydroxynaphthoquinone derivatives, novel 5,8-dihydroxynaphthoquinone derivatives and their use as anticancer agent” (Kuhnil Pharmaceutical Co., Ltd., priority 1993, dated 1997)
# Tests used:
# K-562 cells = assay: Cytotoxic activity against K-562 cells; format: cell-based; details: Homo sapiens; K562 cells, 48 hours, 37° C.; read-out: ED50, cytotoxic activity against K562
# Description: As in the test for the cytotoxic activity against L1210 cells, the test samples were dissoved in ethanol or dimethylsulfoxide in a certain concentration. 0.1 ml of the sample solution was mixed with 0.9 ml of a fresh medium to prepare the dilutions. To each two test tubes having a screw cap were added 100, 50, 25 μl, respectively, of the sample dilutions by means of a micropipet. To each test tube for the test group and the control group (2√n: n=number of the samples) was added 5 ml of the dilutions of HL-60 cells and K-562 cells which were cultured and activated before 24 hours from the beginning of experiment and then diluted in a concentration of 1×10^5 cells/mi. All test tubes were cultured for 48 hours in a CO2 incubator at 37° C. and then the number of cells was counted using a haemacytometer.
# (§1) The ED50 value is defined as a concentration (μg/ml) of the sample which inhibits the growth of cancer cells by 50% of the control group and determined according to a method described in NIC's mannual (NIC=National Cancer Institue, U.S.A.). The growth rate Y(%) of cells in the presence of the test sample in each concentration was calculated according to the followign equation: […]
# (§2) In the above equation, T means the average cell number per ml in the test group after incubation for 48 hours in the presence of the test samples in each concentration, C means the average cell number per ml in the control group after incubation for 48 hours, and Co means the average cell number per ml in the control group at the beginning of incubation. The Y(%) value at each concentration and log10 value of each concentration were obtained and the regression curve was constructed according to the following equation from those obtained values. In this case, when all the Y(%) value obtained at each concentration is greater than 55% or lower than 45%, the experiment was repeatedly conducted.
# (§3) To construct the regression curve Y=A+BX the values A and B were obtained using the following equation. [formula]
# (§4) In the above, the value N is the number of selected points which is greater than 2 and lower than, or identical with, the number of cencentration of the test sample, Xi is log(concentration) i, and Yi is the growth ratio at (concentration)i. The value of ED50 was obtained for those obtained slope and intercept.
# A549 cancer cells = assay: Cytotoxic activity against A549 cancer cells (sulforhodamin B method); format: cell-based; details: Homo sapiens; A549 cells, SRB method, 48 hours; read-out: ED50, cytotoxic activity against A549
# Description: The cytotoxic activity against A549 cancer cells was determined using a method for measuring sulforhodamin B (SRB), which was developed in the year 1989 by NIC for measuring anticancer activity of the drug in vitro. For the experiment, cells under subculturing were separated from the attached surface with trypsin-CDTA solution and then dispensed into a 24-well flat-bottom microplate (Falcon) so that the number of cells per well is 8×10^4 (A549). The microplate was incubated in a CO2 incubator for 24 hours to attach the dispensed cells to bottom. The medium was removed with aspirator. Then, 100 μl of the solution of the test compounds diluted in a log-dose of 6 kinds of concentration was added to each well containing cells, in a multiple of 3. The microplate was incubated for further 48 hours. In addition, the diluted solution of the test compounds above was filtered through a 0.22 μm filter, before addition to the cells, to keep the experiment under sterilized condition. The cells were incubated with the test compounds for 48 hours and then the medium was removed from each well. 100 μl of 10% trichloroacetic acid (TCA) was added to each well and then the plate was allowed to stand at 4° C. for one hour to fix the cells to the bottom of plate. After fixing the cells, the plate was washed 5 to 6 times with water to completely remove any remaining TCA solution and then dried at room temperature until water is no longer present. To the completely dried plate was added the dying solution of 0.4% SRB dissolved in 1% acetic acid in an amount of 250 μl per well to stain the cells for 30 minutes and then the plate was washed again 5 to 6 times with 1% acetic acid solution to remove the remaining SRB which is not bound to the cells. The stained cell plate was dried again at room temperature. Then, the dying solution was carefully dissolved in a certain amount of 10 mM Tris so that the O.D. value in the control group at 520 nm is 0.8-1.0 Å (optical density), and the optical density at 520nm was determined. The ED50 value was obtained from the determined optical density. To calculate the activity of the drug against cancer cells, the number of cells (Tz) at the beginning of the addition of drug, the number of cells (C) after incubation with the medium in the absence of drug for 48 hours and the number of cells (T) after incubation in the presence of drugs at each concentration for 48 hours were determined.
# The anticancer activity of the test compounds was determined form the following equations. Specifically, in the […] the equation (T-Tz)/(C-Tz)×100 was used and in the case of Tz<T the equation (T-Tz)/Tz×100 was used. Then the IC50 value wich is the concentration of drug which inhibits the growth of cancer cells by 50% was calcualted from the above calculated values using a data regressive function of LOTUS programme and the cytotoxic activities of the test compounds were compared with each other.
# L1210 cells = assay: Cytotoxic activity against L1210 cells; format: cell-based; details: Mus musculus; L1210 cells, 48 hours, 37° C.; read-out: ED50, cytotoxic activity against L1210
# Description: To obtain L1210 cells in a logarithmic phase for cytotoxic activity test, in a 250 ml Erlenmeyer flask with a screw cap including Fisher medium warmed to 36° to 37° C. L1210 cells were adjusted to a concentration of 2-3×10^5 cells/ml and then cultured, before 24 hours from the beginning of experiment. Then, the culture solution thus obtained was suspended to prepare a L1210 cell suspension having a concentration of about 0.8-1.0×10^6 cells/ml. Test sample was dissoved in ethanol or dimethylsulfoxide in a certain concentration just before the experiment. 0.1 ml of the sample solution was diluted 10 times with 0.9 ml of a fresh medium. To each screw-capped test tube were added 100, 50, 25 μl, respectively, of the sample dilutions and then added 5 ml of the cell suspension (5×10^4 cells/ml) prepared above to use as the test group. To the test tubes for the control group (2√n: n=number of the samples), only 5 ml of the cell suspension was added. All test tubes were cultured for 48 hours in a CO2 incubator at 37° C. and then the number of cells was counted using a haemacytometer.
# as §1, §2, §3, §4
# S-180 sarcoma cells = assay: Animal experiment using Sarcoma S-180 cells (survival of mouse); format: in vivo, male ICR mouse; details: ip, S-180 ICR mouse, comparative drug, 0.5 mg/kg/day (1.2 μmole)
# Description: In this experiment, healthy male ICR mouse weighing 20 to 25 g were used as test animal and were fed with water and feed without any restriction in the chamber controlled at the temperature of 23° to 24° C. As the feed, the antibiotic-free feed for mouse was used.
# S-180 cells which were incubated for 7 days within abdominal cavity of ICR mouse were separated together with ascites. To the separated cells was added sterilized cold physiological saline and the mixture was centrifuged with 400×g for 2 minutes to separate the cell precipitate. The separated cell precipitate was suspended again in sterilized cold physiological saline and then centrifuged to remove the supernatant. Only S-180 cells were taken, excluding any red bllod cells incorporated therein, washed three times with the same method as above, and then suspended to obtain the cell suspension in concentration of 10^7 cells/ml by counting the number of cells with a haemacytometer. Each 0.1 ml of this cell suspension was transplanted in an abdominal cavity.
# After 24 hours from the transplantation, mouse were divided so that each group contains 8 to 9 mouse. The test sample was dissolved in a predetermined amount of dimethylsulfoxide to prepare the stock solution which was stored at 4° C. 30 μl of the stock solution was taken and then mixed with 1.5 ml of physiological saline. 0.1 ml of this mixture was intraperitoneally injected to the test animal. To the control group, 2% dimethylsulfoxide-physiological saline solution was injected. Meanwhile, doxorubicin which is used as the comparative drug was dissolved in 2% dimethylsulfoxide-physiological saline solution and then injected in an amount of 0.5 mg(titer)/kg. The schedule for injection comprises a total of 7 to 8 injections in the manner that after the transplantation of cancer cells 0.1 ml of the test sample per a day is administered for 2 to 4 days followed by the rest for one day. The survival rate was calculated on the basis of the date on which all of one control group is died (approximately 18 to 20 days). The survival rate (T/C, %) was calculated by the following equation as proposed in NIC's protocol: [formula]
Structure (SMILES),IC50 (K-562 cells) [µg/mL],IC50 (A549 cancer cells) [µg/mL],IC50 (L1210 cells) [µg/mL],"responders at 0.5 mg/kg/day (S-180 sarcoma cells; 1200 h, read-out: Number of mouse survived for 50 days (converted)) [%]",response vs control in vivo at 0.5 mg/kg/day (S-180 sarcoma cells; read-out: T/C) [%]
"CCCCCCCCCCCCOC(CCC(C)C)C1=CC(=O)c2c(OC)ccc(OC)c2C1=O (centres unmarked) [2-(1-dodecyloxy-4-methylpentyl)-5,8-dimethoxy-1,4-naphthoquinone]",3.7,4.8,6.3,,
"CCCCCCCC(O)C1=CC(=O)c2c(O)ccc(O)c2C1=O (centres unmarked) [2-(1-hydroxyoctyl)-5,8-dihydroxy-1,4-naphthoquinone]",0.2,0.4,0.07,,
"CCCCCOC(CCC(C)C)C1=CC(=O)c2c(O)ccc(O)c2C1=O (centres unmarked) [2-(1-pentyloxy-4-methylpentyl)-5,8-dihydroxy-1,4-naphthoquinone]",0.2,1.3,0.3,,
"COc1cccc2c1C(=O)c1c(O)c3c(c(O)c1C2=O)C[C@@](O)(C(=O)CO)C[C@@H]3O[C@H]1C[C@H](N)[C@H](O)[C@H](C)O1 [Doxorubicin, reference compound]",,,,44.4,230
"COc1ccc(OC)c2c1C(=O)C=C(C(CCC(C)C)OCCC(C)C)C2=O (centres unmarked) [2-[1-(3-methylbutoxy)-4-methylpentyl]-5,8-dimethoxy-1,4-naphthoquinone]",2.3,3.3,2.5,,
"CCCCCCCOC(CCC(C)C)C1=CC(=O)c2c(OC)ccc(OC)c2C1=O (centres unmarked) [2-(1-heptyloxy-4-methylpentyl)-5,8-dimethoxy-1,4-naphthoquinone]",6.4,4.7,3.1,,
"CCCCCC(O)C1=CC(=O)c2c(O)ccc(O)c2C1=O (centres unmarked) [2-(1-hydroxyhexyl)-5,8-dihydroxy-1,4-naphthoquinone]",0.02,1.1,0.03,,
"CCCCCCCCCC(O)C1=CC(=O)c2c(O)ccc(O)c2C1=O (centres unmarked) [2-(1-hydroxydecyl)-5,8-dihydroxy-1,4-naphthoquinone]",0.3,0.5,0.1,,
"CCCCC(O)C1=CC(=O)c2c(OC)ccc(OC)c2C1=O (centres unmarked) [2-(1-hydroxypentyl)-5,8-dimethoxy-1,4-naphthoquinone]",1.1,6.4,0.1,,
"CCCCCCCOC(CCC(C)C)C1=CC(=O)c2c(O)ccc(O)c2C1=O (centres unmarked) [2-(1-heptyloxy-4-methylpentyl)-5,8-dihydroxy-1,4-naphthoquinone]",0.2,2.4,0.8,,
"COc1ccc(OC)c2c1C(=O)C=C(C(CCC(C)C)OC)C2=O (centres unmarked) [2-(1-methoxy-4-methylpentyl)-5,8-dimethoxy-1,4-naphthoquinone]",2.1,5.6,0.2,,
"CCCCCCCC(O)C1=CC(=O)c2c(OC)ccc(OC)c2C1=O (centres unmarked) [2-(1-hydroxyoctyl)-5,8-dimethoxy-1,4-naphthoquinone]",2.1,7.5,1,,
"CCOC(CCC(C)C)C1=CC(=O)c2c(OC)ccc(OC)c2C1=O (centres unmarked) [2-(1-ethoxy-4-methylpentyl)-5,8-dimethoxy-1,4-naphthoquinone]",1.5,3,0.01,,
"CCCCCOC(CCC(C)C)C1=CC(=O)c2c(OC)ccc(OC)c2C1=O (centres unmarked) [2-(1-pentyloxy-4-methylpentyl)-5,8-dimethoxy-1,4-naphthoquinone]",3,7.8,2.6,,
"CCCCCCCCCCCCOC(CCC(C)C)C1=CC(=O)c2c(O)ccc(O)c2C1=O (centres unmarked) [2-(1-dodecyloxy-4-methylpentyl)-5,8-dihydroxy-1,4-naphthoquinone]",> 20,> 20,> 20,,
"CCCCCCCCCCCCC(OC(=O)CCC)C1=CC(=O)c2c(O)ccc(O)c2C1=O (centres unmarked) [2-(1-butanoyloxytridecyl)-5,8-dihydroxy-1,4-naphthoquinone]",2.7,> 20,0.6,,
"CCCCCCCCCCCCC(O)C1=CC(=O)c2c(OC)ccc(OC)c2C1=O (centres unmarked) [2-(1-hydroxytridecyl)-5,8-dimethoxy-1,4-naphthoquinone]",2.3,2.8,1.8,,
"CCCCCCCCCC(OC(=O)CCCCC)C1=CC(=O)c2c(O)ccc(O)c2C1=O (centres unmarked) [2-(1-hexanoyloxydecyl)-5,8-dihydroxy-1,4-naphthoquinone]",1.1,13,0.5,,
"CCCCCC(O)C1=CC(=O)c2c(OC)ccc(OC)c2C1=O (centres unmarked) [2-(1-hydroxyhexyl)-5,8-dimethoxy-1,4-naphthoquinone]",0.6,0.9,0.3,,
